From US20040132707A1, “Catecholate beta-lactam conjugates, method for producing the same and the use thereof” (Gruenenthal GmbH, priority 2001, published 2004)
Values after ≈ are worked out from the molar mass of the structure shown.

Columns and labels:
Experiment in all cases: Microdilution MIC assay (NCCLS M7-A)
Format in all cases: cell-based
[1] = test system: Escherichia coli ATCC 25922; details: strain ATCC 25922
Method: (§1) The antibacterial activity was tested by a microdilution assay according to National Committee for Clinical Laboratory Standards, 1998, Methods for dilution antimicrobial susceptibility tests for bacteria that grow aerobically, Approved standard M7-A, NCCLS, Villanova, Pa.
(§2) The minimal inhibition concentrations (MICs) were determined for the following bacterial strains: The Gram-negative strains Pseudomonas aeruginosa SG 137, ATCC 27853, Escherichia coli ATCC 25922, Klebsiella pneumoniae ATCC 10031, Stenotrophomonas maltophilia GN 12873, Serratia marcescens SG 621 as well as for the Gram-positive strain Staphylococcus aureus SG 511.

[2] = test system: Klebsiella pneumoniae ATCC 10031; details: strain ATCC10031
Method: as §1, §2

[3] = test system: Pseudomonas aeruginosa ATCC 27853; details: strain ATCC 27853
Method: as §1, §2

[4] = test system: Pseudomonas aeruginosa SG 137; details: strain SG137
Method: as §1, §2

[5] = test system: Serratia marcescens SG 621; details: strain SG621
Method: as §1, §2

[6] = test system: Staphylococcus aureus SG 511; details: strain SG511
Method: as §1, §2

[7] = test system: Stenotrophomonas maltophilia GN 12873; details: strain GN12873
Method: as §1, §2

Row | Compound | MIC E. coli ATCC 25922 [1] | MIC Klebsiella pneumoniae ATCC10031 [2] | MIC Pseudomonas aeruginosa ATCC 27853 [3] | MIC Pseudomonas aeruginosa SG137 [4] | MIC Serratia marc. SG621 [5] | MIC Staph. aureus SG511 [6] | MIC Stenotroph. maltoph. GN12873 [7]
1 | COC(=O)Oc1cccc(C(=O)N(C)CCCN(CC(=O)NC(C(=O)NC2C(=O)N3C2SC(C)(C)C3C(=O)O)c2ccccc2)C(=O)c2cccc(OC(=O)OC)c2OC(=O)OC)c1OC(=O)OC (stereo not shown) [Example 1, N-[3,7-Bis-(2,3-dimethoxycarbonyloxybenzoyl)-3,7-diaza-octanoyl]-ampicillin] | 0.062 µg/mL (≈ 0.0631 µM) | 0.008 µg/mL (≈ 0.00815 µM) | 0.031 µg/mL (≈ 0.0316 µM) | 0.031 µg/mL (≈ 0.0316 µM) | 0.078 µg/mL (≈ 0.0794 µM) | 10 µg/mL (≈ 10.2 µM) | 0.062 µg/mL (≈ 0.0631 µM)
2 | CC(=O)Oc1cccc(C(=O)NCCCCCCN(CCCCCCN(CC(=O)NC(C(=O)NC2C(=O)N3C2SC(C)(C)C3C(=O)O)c2ccccc2)C(=O)c2cccc(OC(C)=O)c2OC(C)=O)C(=O)c2cccc(OC(C)=O)c2OC(C)=O)c1OC(C)=O (stereo not shown) [Example 2, N-[3,10,17-Tris-(2,3-diacetoxybenzoyl)-3,10,17-triaza-heptadecanoyl]-ampicillin] | 0.4 µg/mL (≈ 0.316 µM) | 0.4 µg/mL (≈ 0.316 µM) | 3.125 µg/mL (≈ 2.47 µM) | <0.05 µg/mL | – | 6.25 µg/mL (≈ 4.94 µM) | –
3 | COC(=O)Oc1cccc(C(=O)N(CCN(CCn2c(=O)oc3c(OC(=O)OC)cccc3c2=O)CCn2c(=O)oc3c(OC(=O)OC)cccc3c2=O)CC(=O)NC(C(=O)NC2C(=O)N3C2SC(C)(C)C3C(=O)O)c2ccccc2)c1OC(=O)OC (stereo not shown) [Example 3, N-[6-Bis[2-(8-methoxycarbonyloxy-benzoxazin-2,4-dion-3-yl)-ethyl]-3-[2,3-di-(methoxycarbonyloxy)-benzoyl]-3,6-diaza-hexanoyl]-ampicillin] | 0.2 µg/mL (≈ 0.163 µM) | <0.05 µg/mL | 0.78 µg/mL (≈ 0.635 µM) | 0.1 µg/mL (≈ 0.0814 µM) | 0.2 µg/mL (≈ 0.163 µM) | 12.5 µg/mL (≈ 10.2 µM) | 0.4 µg/mL (≈ 0.326 µM)
4 | CC(=O)Oc1cccc(C(=O)NCCCCCCN(CCCCCCN(CC(=O)NC(C(=O)NC2C(=O)N3C(C(=O)O)=C(Cl)CSC23)c2ccccc2)C(=O)c2cccc(OC(C)=O)c2OC(C)=O)C(=O)c2cccc(OC(C)=O)c2OC(C)=O)c1OC(C)=O (stereo not shown) [Example 4, N-[3,10,17-Tris-(2,3-diacetoxybenzoyl)-3,10,17-triaza-heptadecanoyl]-cefaclor] | 0.2 µg/mL (≈ 0.156 µM) | <0.05 µg/mL | 1.56 µg/mL (≈ 1.22 µM) | 0.2 µg/mL (≈ 0.156 µM) | – | 6.25 µg/mL (≈ 4.87 µM) | 50 µg/mL (≈ 38.9 µM)
5 | CCOC(=O)OC(C)OC(=O)[C@@H]1N2C(=O)[C@@H](NC(=O)[C@H](NC(=O)CN(CCCCCCN(CCCCCCNC(=O)c3cccc(OC(C)=O)c3OC(C)=O)C(=O)c3cccc(OC(C)=O)c3OC(C)=O)C(=O)c3cccc(OC(C)=O)c3OC(C)=O)c3ccccc3)[C@H]2SC1(C)C (stereo partly shown) [Example 5, N-[3,10,17-Tris-(2,3-diacetoxybenzoyl)-3,10,17-triaza-heptadecanoyl]-bacampicillin] | 100 µg/mL (≈ 72.4 µM) | 0.2 µg/mL (≈ 0.145 µM) | 25 µg/mL (≈ 18.1 µM) | 25 µg/mL (≈ 18.1 µM) | 0.4 µg/mL (≈ 0.29 µM) | – | 50 µg/mL (≈ 36.2 µM)
6 | CC(=O)Oc1cccc(C(=O)NCCCN(CCCN(CC(=O)NC(C(=O)NC2C(=O)N3C2SC(C)(C)C3C(=O)O)c2ccccc2)C(=O)c2cccc(OC(C)=O)c2OC(C)=O)C(=O)c2cccc(OC(C)=O)c2OC(C)=O)c1OC(C)=O (stereo not shown) [Example 6, N-[3,7,11-Tris-(2,3-diacetoxybenzoyl)-3,7,11-triaza-undecanoyl]-ampicillin] | 1.56 µg/mL (≈ 1.32 µM) | 0.1 µg/mL (≈ 0.0847 µM) | 1.56 µg/mL (≈ 1.32 µM) | 0.2 µg/mL (≈ 0.169 µM) | 0.78 µg/mL (≈ 0.66 µM) | 6.25 µg/mL (≈ 5.29 µM) | 0.4 µg/mL (≈ 0.339 µM)
7 | COC(=O)Oc1cc(Cl)cc(C(=O)N(C)CCCN(CC(=O)NC(C(=O)NC2C(=O)N3C2SC(C)(C)C3C(=O)O)c2ccccc2)C(=O)c2cc(Cl)cc(OC(=O)OC)c2OC(=O)OC)c1OC(=O)OC (stereo not shown) [Example 7, N-[3,7-Bis-(5-chlor-2,3-dimethoxycarbonyloxybenzoyl)-3,7-diaza-octanoyl]-ampicillin] | 0.05 µg/mL (≈ 0.0476 µM) | <0.005 µg/mL | 0.1 µg/mL (≈ 0.0952 µM) | <0.005 µg/mL | 0.02 µg/mL (≈ 0.019 µM) | 12.5 µg/mL (≈ 11.9 µM) | 0.02 µg/mL (≈ 0.019 µM)
8 | COC(=O)Oc1cc(Br)cc(C(=O)N(C)CCCN(CC(=O)NC(C(=O)NC2C(=O)N3C2SC(C)(C)C3C(=O)O)c2ccccc2)C(=O)c2cc(Br)cc(OC(=O)OC)c2OC(=O)OC)c1OC(=O)OC (stereo not shown) [Example 8, N-{3,7-Bis-[5-brom-2,3-di-(methoxycarbonyloxy)-benzoyl]-3,7-diaza-octanoyl}-ampicillin] | <0.005 µg/mL | <0.005 µg/mL | 0.05 µg/mL (≈ 0.0439 µM) | <0.005 µg/mL | 0.02 µg/mL (≈ 0.0175 µM) | 6.25 µg/mL (≈ 5.48 µM) | 0.02 µg/mL (≈ 0.0175 µM)
9 | CC(=O)Oc1cccc(C(=O)N(C)CCCN(CC(=O)N[C@@H](C(=O)N[C@@H]2C(=O)N3[C@@H]2SC(C)(C)[C@@H]3C(=O)O)c2ccccc2)C(=O)c2cccc(OC(C)=O)c2OC(C)=O)c1OC(C)=O [Example 9, N-[3,7-Bis-(2,3-diacetoxybenzoyl)-3,7-diaza-octanoyl]-ampicillin] | 0.02 µg/mL (≈ 0.0218 µM) | <0.005 µg/mL | 0.08 µg/mL (≈ 0.0872 µM) | 0.005 µg/mL (≈ 0.00545 µM) | 0.05 µg/mL (≈ 0.0545 µM) | 3.12 µg/mL (≈ 3.4 µM) | 0.02 µg/mL (≈ 0.0218 µM)
10 | CC(=O)Oc1cccc(C(=O)NCCCCN(CC(=O)N[C@@H](C(=O)N[C@@H]2C(=O)N3[C@@H]2SC(C)(C)[C@@H]3C(=O)O)c2ccccc2)C(=O)c2cccc(OC(C)=O)c2OC(C)=O)c1OC(C)=O [Example 10, N-[3,8-Bis-(2,3-diacetoxybenzoyl)-3,8-diaza-octanoyl]-ampicillin] | <0.005 µg/mL | <0.005 µg/mL | 0.05 µg/mL (≈ 0.0545 µM) | <0.005 µg/mL | <0.005 µg/mL | 3.12 µg/mL (≈ 3.4 µM) | <0.005 µg/mL
11 | CC(=O)Oc1cccc(C(=O)NCCCCN(CC(=O)NC(C(=O)NC2C(=O)N3C2SC(C)(C)C3C(=O)O)c2ccc(O)cc2)C(=O)c2cccc(OC(C)=O)c2OC(C)=O)c1OC(C)=O (stereo not shown) [Example 11, N-[3,8-Bis-(2,3-diacetoxybenzoyl)-3,8-diaza-octanoyl]-amoxicillin] | 0.01 µg/mL (≈ 0.0107 µM) | <0.005 µg/mL | 0.1 µg/mL (≈ 0.107 µM) | 0.01 µg/mL (≈ 0.0107 µM) | <0.005 µg/mL | 3.12 µg/mL (≈ 3.34 µM) | <0.005 µg/mL
12 | COC(=O)Oc1cc(Cl)c(Cl)c(C(=O)N(C)CCCN(CC(=O)NC(C(=O)NC2C(=O)N3C2SC(C)(C)C3C(=O)O)c2ccccc2)C(=O)c2c(Cl)c(Cl)cc(OC(=O)OC)c2OC(=O)OC)c1OC(=O)OC (stereo not shown) [Example 12, N-{3,7-Bis-(2,3-dichlor-5,6-di-methoxycarbonyloxy-benzoyl)-3,7-diaza-octanoyl}-ampicillin] | 0.02 µg/mL (≈ 0.0179 µM) | <0.005 µg/mL | 0.1 µg/mL (≈ 0.0893 µM) | 0.05 µg/mL (≈ 0.0447 µM) | 0.05 µg/mL (≈ 0.0447 µM) | 3.12 µg/mL (≈ 2.79 µM) | 0.05 µg/mL (≈ 0.0447 µM)
13 | CC(=O)Oc1cccc(C(=O)NCCN(CCNC(=O)c2cccc(OC(C)=O)c2OC(C)=O)CCN(CC(=O)NC(C(=O)NC2C(=O)N3C2SC(C)(C)C3C(=O)O)c2ccccc2)C(=O)c2cccc(OC(C)=O)c2OC(C)=O)c1OC(C)=O (stereo not shown) [Example 13, N-{[6-Bis-2,3-(diacetoxybenzoyl)-2-aminoethyl]-3-(2,3-diacetoxybenzoyl)-3,6-diaza-hexanoyl}-ampicillin] | 0.78 µg/mL (≈ 0.652 µM) | 0.1 µg/mL (≈ 0.0836 µM) | 3.12 µg/mL (≈ 2.61 µM) | 0.1 µg/mL (≈ 0.0836 µM) | 0.78 µg/mL (≈ 0.652 µM) | 1.56 µg/mL (≈ 1.3 µM) | 0.2 µg/mL (≈ 0.167 µM)
14 | COC(=O)Oc1cccc(C(=O)NCC(O)CN(CC(=O)NC(C(=O)NC2C(=O)N3C2SC(C)(C)C3C(=O)O)c2ccccc2)C(=O)c2cccc(OC(=O)OC)c2OC(=O)OC)c1OC(=O)OC (stereo not shown) [Example 14, N-[3,7-Bis-(2,3-dimethoxycarbonyloxybenzoyl)-3,7-diaza-5-hydroxy-heptanoyl]-ampicillin] | 6.25 µg/mL (≈ 6.35 µM) | 0.2 µg/mL (≈ 0.203 µM) | 1.56 µg/mL (≈ 1.59 µM) | 0.1 µg/mL (≈ 0.102 µM) | 1.56 µg/mL (≈ 1.59 µM) | 0.4 µg/mL (≈ 0.407 µM) | 0.4 µg/mL (≈ 0.407 µM)
